# Assay results taken from patent US8574865B2, “Methods and assays for identifying compounds that modulate protein-protein interactions” (Sanofi, priority 2007, dated 2013).
# “Also recorded” adds a separate entry of the source.
# Key:
# [1] = target: T1, V2 vasopressin receptor (Homo sapiens, UniProt P30518); test: GPCR Per-Luc assay, HEK293 cells stably expressing Arr-luc234V233 and transfected with V2-TEV; type: cell-based; details: different concentrations, two hours
# T1 construct: expressed in transfected cells; host or cells: HEK293 stably expressing Arr-luc234V233
# T1 sequence (P30518 whole entry): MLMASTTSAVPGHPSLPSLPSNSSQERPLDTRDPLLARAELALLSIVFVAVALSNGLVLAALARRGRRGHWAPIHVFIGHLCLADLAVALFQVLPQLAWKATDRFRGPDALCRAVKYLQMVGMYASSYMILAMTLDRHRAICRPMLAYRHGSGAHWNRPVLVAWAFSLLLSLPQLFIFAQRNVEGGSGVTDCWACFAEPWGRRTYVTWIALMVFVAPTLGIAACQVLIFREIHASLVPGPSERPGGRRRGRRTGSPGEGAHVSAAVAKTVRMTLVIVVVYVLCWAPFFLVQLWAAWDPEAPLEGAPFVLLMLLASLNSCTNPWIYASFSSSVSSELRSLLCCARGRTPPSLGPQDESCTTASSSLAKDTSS
# Experimental: HEK cells stably transfected with an arrestin/permuted luciferase construct were transiently transfected with a V2-TEV construct and induced with the agonist, 8AVP, arginine vasopressin (left graph).
# Bright-GLO™ luciferase reagent was added to cells.
# [2] = target: T2, ADRB2 (Homo sapiens, UniProt P07550); test: GPCR Per-Luc assay, HEK293 cells stably expressing Arr-luc234V233 and transiently transfected with ADRB2-TEV; type: cell-based; details: different concentrations, two hours
# T2 construct: expressed in transfected cells
# T2 sequence (P07550 whole entry): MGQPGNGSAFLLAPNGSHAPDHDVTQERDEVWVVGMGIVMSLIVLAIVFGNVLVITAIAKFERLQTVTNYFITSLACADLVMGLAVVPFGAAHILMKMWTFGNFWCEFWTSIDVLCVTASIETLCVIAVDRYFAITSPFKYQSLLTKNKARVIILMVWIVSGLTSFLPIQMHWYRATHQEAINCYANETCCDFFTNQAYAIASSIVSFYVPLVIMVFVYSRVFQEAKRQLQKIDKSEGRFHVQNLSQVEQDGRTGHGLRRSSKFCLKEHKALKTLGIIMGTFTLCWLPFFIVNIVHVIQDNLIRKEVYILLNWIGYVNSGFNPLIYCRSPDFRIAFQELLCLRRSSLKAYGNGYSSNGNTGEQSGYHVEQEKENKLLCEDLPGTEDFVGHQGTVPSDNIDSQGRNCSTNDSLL
# [3] = test system: Endogenous receptor EDG in HEK293 cells; test: FLIPR and cAMP assays; details: HEK293 endogenous EDG receptors
Compound,luciferase activity (β arrestin recruitment to V2) [1],"luciferase activity, compound alone [2]",signal in FLIPR and cAMP assays [3]
CCOc1ccc2c(c1)C1(CCC(OCCN3CCOCC3)CC1)C(=O)N2S(=O)(=O)c1ccc(C(=O)NC(C)(C)C)cc1OC (stereo not drawn) [SR121463],"increasing levels of luminescence were observed with increasing amounts; also recorded: induced a G protein-independent, arrestin-dependent signal",,
"CCCCCCCCCCCCC/C=C/[C@@H](O)[C@@H](N)COP(=O)(O)O [S1P, sphingosine-1-phosphate]",,did not affect the luciferase activity,did produce positive signals
